# Data as given in patent EP2266530A1, “Oxazolidinones for cosmetic cutaneous use” (Laboratoires Expanscience, priority 2002, dated 2004).
# Legend:
# cellules de Langerhans = test: Migration of freshly isolated, DNSB-sensitised Langerhans cells through Matrigel in a two-compartment culture chamber; settings: for inhibition de la migration des CL induite par le DNSB (result in words): compound 1 µM
# Method: Des suspensions de cellules épidermiques ont été obtenues par traitement enzymatique (0,05% trypsine, pendant 18h à +4°C) de fragments de peau humaine normale issus de chirurgie plastique. Les suspensions obtenues contiennent en moyenne 2 à 4% de CL. L'obtention de suspensions contenant en moyenne 70% de CL est basée sur le principe de la centrifugation sur gradient de densité (Lymphoprep™) et élimination des kératinocytes.
# Le milieu de base choisi pour l'ensemble de l'étude a été le RPMI 1640 (Gibco BRL, France).
# On a utilisé comme agent sensibilisateur le DNSB (Sigma Aldrich), forme soluble du DNCB (dinitro-chloro-benzène), solubilisé en RPMI-BSA et utilisé à la concentration de 50 µM.
# Un système de chambre de culture à deux compartiments (Falcon, Becton Dickinson, France) a été utilisé. Le compartiment supérieur est séparé du compartiment inférieur par une membrane de porosité 8 µm, sur laquelle sont déposées 50 µg/cm^2 de Matrigel. La membrane est alors recouverte de protéines formant un film équivalent à une membrane basale (laminine, collagène IV, nidogène, entactine, héparane sulfate protéoglycanes). Les cellules reprises dans le milieu RPMI-BSA seul ou en présence des différents produits sont déposées dans le compartiment supérieur. Dans le compartiment inférieur, est ajouté du surnageant de culture de fibroblastes humains normaux. Après 18h d'incubation à 37°C, le nombre de cellules vivantes ayant traversé le Matrigel et se trouvant dans le compartiment inférieur est compté sous microscope (les CL sont facilement identifiables par leur forme dendritique). Chaque essai est réalisé en triplicate.
# Dans l'expression des résultats, la capacité migratoire des CL contrôle (non traitées et non sensibilisées) est arbitrairement fixée à 1.
# cellules dendritiques = test: FITC-induced migration of dendritic cells from ear skin to draining lymph nodes in mice (flow cytometry); format: in vivo, souris
# Source text: Le FITC (Fluorescéine isothiocyanate, Sigma, St. Louis, MO) a été dilué extemporanément dans un mélange acétone : dibutylphthalate (1:1).
# L'oxazolidinone B et le LU105 (LU 105 est un inhibiteur de MMPs, correspondant à un extrait peptidique de lupin blanc commercialisé par la Société Expanscience sous le nom de marque Actimp 193®) ont été fournis par les "Laboratoires Expanscience", et formulés seuls ou en association dans un véhicule inerte compatible avec une application topique, tel que décrit à l'exemple 1 ci-dessus [oxazolidinone B (0,5%) ± LU105 (2%)]. Les différentes formulations ont été appliquées sur les oreilles de souris deux fois par jour pendant 4 jours consécutifs. Trois heures après la dernière application, 1,5% de FITC sont appliqués sur les deux oreilles (l'une traitée et l'autre non traitée (Contrôle)).
# L'effet des deux molécules a été évalué in vivo chez la souris. La peau des deux oreilles est badigeonnée avec 1,5% FITC (2X5 µl). 24 h après, les souris sont sacrifiées et une suspension cellulaire est préparée à partir des ganglions auriculaires et cervicaux (ganglions drainants, ci-après dénommés GL) ou à partir des ganglions popliteaux (ganglions non drainants, contrôle négatif). Les tissus ont été découpés et les cellules sont séparées par filtration (filtre […], Falcon; Becton Dickinson), puis lavés. […]
structure (smiles),measurement,setting,value
"O=[N+]([O-])c1ccc(S(=O)(=O)O)c([N+](=O)[O-])c1 [DNSB, reference compound]",stimulation de la migration des CL par rapport aux cellules contrôle,"cellules de Langerhans; Example 3, DNSB 50 µM alone",+113%
same,Index de migration,"cellules de Langerhans; Example 4, cells sensitised with DNSB alone, control cells = 1","1,78"
"CCCCCCCCCCCCC1COC(=O)N1 (centres unmarked) [oxazolidinone A, 4-dodécyl-oxazolidin-2-one]",inhibition de la migration des CL induite par le DNSB (result in words),cellules de Langerhans; Example 3,inhibent de manière significative
"CCCCCCCCCCCCC1NC(=O)OC1CCCCCCCCCCCC (centres unmarked) [oxazolidinone B, 4,5-didodécyl-oxazolidin-2-one]",Inhibition de la migration en %,"cellules dendritiques; 0,5% topical on mouse ears, twice daily for 4 days, FITC 1,5%, read 24 h later",28%
same,inhibition de la migration des CD vers les GL (result in words),"cellules dendritiques; mice sensitised with FITC, oxazolidinone B alone",inhibe de manière significative
same,inhibition de la migration des CL induite par le DNSB (result in words),cellules de Langerhans; Example 3,inhibent de manière significative
same,inhibition de la migration des CL sensibilisées (result in words),"cellules de Langerhans; Example 4, tested separately",inhibent de manière significative
"CCCCCCCCCCCCC1COC(=O)N1CCCCCCCCCCCC (centres unmarked) [oxazolidinone C, 3,4-didodécyl-oxazolidin-2-one]",inhibition de la migration des CL induite par le DNSB (result in words),cellules de Langerhans; Example 3,inhibent de manière significative
